Results on 19 compounds are retold here after ChEMBL document CHEMBL4393696, “5-Arylisothiazol-3(2H)-one-1,(1)-(di)oxides: A new class of selective tumor-associated carbonic anhydrases (hCA IX and XII) inhibitors” (Eur J Med Chem, 2019).

The target in one test is Carbonic anhydrase 1 (Homo sapiens, UniProt P00915). Put plainly: Inhibition of human carbonic anhydrase 1 assessed as inhibitory constant preincubated for 15 mins by stopped-flow CO2 hydration assay.
Another test concerns the target Carbonic anhydrase 2 (Homo sapiens, UniProt P00918). Put plainly: Inhibition of human carbonic anhydrase 2 assessed as inhibitory constant preincubated for 15 mins by stopped-flow CO2 hydration assay.
The target of another test is Carbonic anhydrase 9 (Homo sapiens, UniProt Q16790). Put plainly: Inhibition of human carbonic anhydrase 9 assessed as inhibitory constant preincubated for 15 mins by stopped-flow CO2 hydration assay.
Another test addresses Carbonic anhydrase 12 (Homo sapiens, UniProt O43570). Put plainly: Inhibition of human carbonic anhydrase 12 assessed as inhibitory constant preincubated for 15 mins by stopped-flow CO2 hydration assay.

Some results are limits rather than exact numbers.

Chain of Carbonic anhydrase 1 (P00915 whole entry): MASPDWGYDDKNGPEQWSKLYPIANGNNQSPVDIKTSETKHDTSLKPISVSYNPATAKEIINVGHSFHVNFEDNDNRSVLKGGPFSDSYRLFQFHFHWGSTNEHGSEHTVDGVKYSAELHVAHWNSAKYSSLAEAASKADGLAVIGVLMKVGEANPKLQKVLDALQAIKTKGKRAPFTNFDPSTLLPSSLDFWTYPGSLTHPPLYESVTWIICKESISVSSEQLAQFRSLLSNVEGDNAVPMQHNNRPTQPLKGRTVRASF
Chain of Carbonic anhydrase 12 (O43570 whole entry): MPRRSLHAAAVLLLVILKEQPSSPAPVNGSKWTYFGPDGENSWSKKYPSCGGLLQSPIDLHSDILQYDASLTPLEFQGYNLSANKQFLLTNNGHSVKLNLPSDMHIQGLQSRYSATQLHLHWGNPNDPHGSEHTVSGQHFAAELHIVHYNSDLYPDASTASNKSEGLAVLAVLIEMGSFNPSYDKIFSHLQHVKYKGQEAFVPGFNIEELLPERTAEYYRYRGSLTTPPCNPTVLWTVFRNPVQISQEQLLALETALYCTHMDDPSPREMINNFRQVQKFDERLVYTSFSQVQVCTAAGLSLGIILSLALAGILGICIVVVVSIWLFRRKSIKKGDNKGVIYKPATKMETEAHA

With `CC(C)(C)N1C(=O)C=C(c2ccccc2)S1(=O)=O`, the Ki was more than 10000 nM on Carbonic anhydrase 1, 1570 nM at Carbonic anhydrase 2 and 28.4 nM at Carbonic anhydrase 9.
For the compound `CC(C)(C)N1C(=O)C=C(c2cc3ccccc3n2S(=O)(=O)c2ccccc2)S1(=O)=O`, the results for the inhibition constant (Ki) on Carbonic anhydrase 1, at Carbonic anhydrase 2 and on Carbonic anhydrase 9 were more than 10000 nM, more than 10000 nM and 347 nM, respectively.
As to `O=c1cc(-c2ccccc2)[s+]([O-])[nH]1` (stereo not drawn), the inhibitory constant (Ki) on Carbonic anhydrase 1 is more than 10000 nM; at Carbonic anhydrase 2, more than 10000 nM; at Carbonic anhydrase 9 it was 45.5 nM.
Take `CC(C)(C)n1c(=O)cc(-c2ccccc2)[s+]1[O-]` (stereo not drawn): the values for the Ki on Carbonic anhydrase 1, at Carbonic anhydrase 2 and at Carbonic anhydrase 9 were more than 10000 nM, more than 10000 nM and 4.5 nM, respectively.
With `O=c1cc(-c2cn(S(=O)(=O)c3ccccc3)c3ccccc23)[s+]([O-])[nH]1` (stereo not drawn), the Ki on Carbonic anhydrase 1 is more than 10000 nM; at Carbonic anhydrase 2 it was more than 10000 nM; on Carbonic anhydrase 9, 101 nM.
For the compound `O=C1C=C(c2ccccc2)S(=O)(=O)N1`, the Ki on Carbonic anhydrase 1 is more than 10000 nM; at Carbonic anhydrase 2 it was more than 10000 nM; on Carbonic anhydrase 9, 40.3 nM.
Regarding `CC(C)(C)OC(=O)n1c(-c2cc(=O)n(C(C)(C)C)[s+]2[O-])cc2ccccc21` (stereo not drawn), the Ki on Carbonic anhydrase 1 was more than 10000 nM; at Carbonic anhydrase 2, more than 10000 nM; on Carbonic anhydrase 9, 47.7 nM.
Consider `CC(C)(C)N1C(=O)C=C(Cl)S1(=O)=O`, for which the results for the Ki on Carbonic anhydrase 2 and on Carbonic anhydrase 9 were more than 10000 nM and 227 nM, respectively.
On to `CC(C)(C)n1c(=O)cc(-c2cn(S(=O)(=O)c3ccccc3)c3ccccc23)[s+]1[O-]` (stereo not drawn), for which the values for the Ki on Carbonic anhydrase 1, on Carbonic anhydrase 2 and on Carbonic anhydrase 9 were more than 10000 nM, 2110 nM and 8.8 nM, respectively.
Take `CC(C)(C)N1C(=O)C=C(c2cn(S(=O)(=O)c3ccccc3)c3ccccc23)S1(=O)=O`: the Ki was more than 10000 nM on Carbonic anhydrase 1, 81.8 nM on Carbonic anhydrase 2 and 4.3 nM on Carbonic anhydrase 9.
On to `CC(C)(C)n1sc(Cl)cc1=O`, for which the values for the Ki on Carbonic anhydrase 2 and on Carbonic anhydrase 9 were more than 10000 nM and 98.5 nM, respectively.
The like results for `CC(C)(C)n1c(=O)cc(-c2cc3ccccc3s2)[s+]1[O-]` (stereo not drawn) were, in that order, more than 10000 nM and 133 nM.
In the same order, the values of `CC(C)(C)n1c(=O)cc(-c2ccc3ccccc3c2)[s+]1[O-]` (stereo not drawn) are more than 10000 nM and 16 nM.
Regarding `CC(C)(C)n1c(=O)cc(-c2cccs2)[s+]1[O-]` (stereo not drawn), the results for the Ki at Carbonic anhydrase 1, on Carbonic anhydrase 2 and on Carbonic anhydrase 9 were more than 10000 nM, more than 10000 nM and 48.6 nM, respectively.
For `CC(C)(C)n1c(=O)cc(-c2cc3ccccc3n2S(=O)(=O)c2ccccc2)[s+]1[O-]` (stereo not drawn), the Ki at Carbonic anhydrase 1 was more than 10000 nM; on Carbonic anhydrase 2 it was more than 10000 nM; at Carbonic anhydrase 9, 40.3 nM.
Take `CC(C)(C)N1C(=O)C=C(c2cccs2)S1(=O)=O`: the Ki was more than 10000 nM on Carbonic anhydrase 1, more than 10000 nM on Carbonic anhydrase 2 and 221 nM at Carbonic anhydrase 9.
Turning to `COc1cc(-c2cc(=O)n(C(C)(C)C)[s+]2[O-])cc(OC)c1OC` (stereo not drawn), the Ki on Carbonic anhydrase 1 was more than 10000 nM; on Carbonic anhydrase 2, more than 10000 nM; on Carbonic anhydrase 9, 237 nM.
Consider `CC(C)(C)n1c(=O)cc(-c2cc3ccccc3o2)[s+]1[O-]` (stereo not drawn), for which the Ki on Carbonic anhydrase 2 is more than 10000 nM; on Carbonic anhydrase 9, 251 nM.
Take `CC(C)(C)n1c(=O)cc(Cl)[s+]1[O-]` (stereo not drawn): the Ki on Carbonic anhydrase 1 is 454 nM; on Carbonic anhydrase 2, more than 10000 nM; on Carbonic anhydrase 9, 171 nM; at Carbonic anhydrase 12 it was 53.6 nM.
